# Earlier results as cited in patent US20050065125A1, “2-alkylidene-19-nor-vitamin D derivatives for the treatment of osteopenia or male osteoporosis” (Pfizer Inc, priority 2003, published 2005).
# Conditions: chronic mode, 7 days, rats
row,Compound,"Bone calcium mobilization (serum calcium) activity relative to the native hormone 1,25-(OH)2D3"
1,"C=C1[C@H](O)CC(=C/C=C2\CCC[C@]3(C)[C@@H]([C@@H](C)CCCC(C)(C)O)CC[C@@H]23)C[C@H]1O [2-Methylene-19-Nor-20S-1,25-(OH)2D3, (20S)-1α,25-dihydroxy-2-methylene-19-nor-vitamin D3]",at least 10 times
2,"C=C1[C@H](O)CC(=C/C=C2\CCC[C@]3(C)[C@@H]([C@H](C)CCCC(C)(C)O)CC[C@@H]23)C[C@H]1O [2-Methylene-19-Nor-1,25-(OH)2D3, 1α,25-dihydroxy-2-methylene-19-nor-vitamin D3]",10-100 times
